“Also recorded” adds a separate entry of the source.
What was measured:
cell wall UCP = assay: Flow cytometry of non-permeabilized cells stained with anti-UCP2 antibody for cell wall UCP; assay type: cell-based, Chlamydomonas reinhardtii; settings: wild type strains of C. reinhardtii treated with norflurazon; FIG. 3
Protocol: Wild type (CC124, mt−) and cell wall-less (CC, mt+) C. reinhardtii were tested for the presence of UCP by flow cytometry. Non-permeabilized cells were stained with anti-UCP2 antibody (Santa Cruz Technologies). Cells were prepared for staining with goat anti-UCP2 antibody (Santa Cruz Pharmaceuticals) followed by fluorescein conjugated anti-rabbit or goat outer step antibodies, respectively. Data were acquired on a Coulter Elite Epics flow cytometer (Coulter, Hialeah, Fla.) and analyzed with CellQuest software, (Becton Dickinson, San Jose, Calif.). Cells were stained for intracellular peroxide using 6-carboxy-2′-7′-dichlorodihydrofluorescein diacetate (DCF-DA, Molecular Probes, Eugene, Oreg.). Briefly, cells were incubated with DCF-DA for 20 minutes, washed twice in PBS containing 5% fetal calf serum and analyzed flow cytometrically. Mitochondrial membrane potential was assessed using Mitotracker Red (CM-H2XROS, Molecular Probes, Eugene, Oreg.). The cells were resuspended in cold, or room temperature, PBS containing 13% fetal calf serum, 0.5 micromolar Mitotracker Red dye was then added to the suspension. The cells were incubated at 37° C. for 20 minutes, pelleted, and resuspended in prewarmed medium for analysis. […] Each sample population was classified for cell size (forward scatter) and complexity (side scatter), gated on a population of interest and evaluated using 40,000 cells.

[1] = tested on: wild type strains of algae; assay: Light sensitivity of wild type algae in the presence of the herbicide; assay type: cell-based, Chlamydomonas reinhardtii; settings: in the presence of norflurazon

CNc1cnn(-c2cccc(C(F)(F)F)c2)c(=O)c1Cl [norflurazon]
cell wall expression of UCP (cell wall UCP): upregulates cell wall expression of UCP; also recorded: Increased levels of uncoupling protein
light sensitivity of algae [1]: made light-sensitive

— patent US7105718B2, “Compositions and methods for regulating metabolism in plants” (The Regents of the University of Colorado, priority 2000, dated 2006)
